Measured values reported in patent US20110269815A1, “METHODS OF REDUCING CELLULAR PROLIFERATION BY INHIBITING ACSVL3” (THE JOHNS HOPKINS UNIVERSITY, priority 2008, published 2011).
Numbered stars: 1 amine (or outer) side, 2 acyl side, 3 side chain; on linkers, the order of the positions; unused ones are H or OH. Bridge positions count the residues as written; N and C are the ends. Square brackets hold non-standard residues; d marks the D form. Peptide text beside a SMILES is read from it. I, II: the chains in the order shown. * marks the point of attachment. Actinocin(9to1) = Cc1c2oc3c(C)ccc(C(=O)[*:1])c3nc-2c(C(=O)[*:2])c(N)c1=O; NMeV = CN[C@H](C(=O)O)C(C)C; Cbz = O=C(OCc1ccccc1)*; Sar = CNCC(=O)O; CH2F = FC*

Legend:
ACSVL3 [1] = assay: Acyl-CoA synthetase activity of control vs ACSVL3-deficient U87 cells with candidate small molecule inhibitors; type: biochemical, human; settings: 80 μM drug; palmitic acid substrate; preliminary studies, FIG. 14
Description: Acyl-CoA synthetase assays. Activation of [1-^14C]palmitate (C16:0) or [1-^14C]lignocerate (C24:0) (Moravek Biochemicals, Brea Calif.) to their CoA derivatives was measured in frozen/thawed cell suspensions or post-nuclear supernatants of xenograft tissue homogenates as previously described (9, 19). Assays contained 15 or 60 μg cell or tissue protein for C16:0 and C24:0 fatty acid substrates, respectively.
For this study, we examined the effects of candidate small molecule inhibitors on the acyl-CoA synthetase activity of control U87 glioblastoma cells and ACSVL3-deficient U87 cells. The 16-carbon fatty acid, palmitic acid, was used as substrate. Drugs were solubilized in dimethylsulfoxide (DMSO, 10 mM) and diluted with phosphate-buffered saline (PBS, 0.8 mM) prior to their inclusion in enzyme assays; the final concentration of drug in the assay was 80 μM. Control incubations contained the vehicle, DMSO diluted in PBS, only. The assay measures the combined enzyme activity of all acyl-CoA synthetases found in U87 cells that are capable of using palmitic acid as substrate. A specific inhibitor of ACSVL3 is one in which there is partial inhibition of total cellular enzyme activity in control U87 cells (grey bars), but not in ACSVL3-deficient U87 cells (black bars).

ACSVL3 [2] = assay: ACSVL3 expression in U373 cells with transcription or translation inhibitor, without or with HGF; type: cell-based, human; settings: actinomycin D 20 μg/ml, cycloheximide 5 μM; for HGF-induced increase in ACSVL3 expression: HGF 6 hours
Description: We then investigated whether the increase in ACSVL3 protein in U373 cells was due to increased transcription of the ACSVL3 gene, or increased translation of ACSVL3 mRNA. U373 cells were incubated without or with HGF for 6 hours in the absence and presence of an inhibitor of transcription, actinomycin D, or the protein synthesis (translation) inhibitor, cycloheximide. Actinomycin D (20 μg/ml) and cycloheximide (5 μM) were added to the culture medium 16 and 8 hours, respectively, prior to the addition of HGF.

ACSVL3 [3] = assay: ACSVL3 expression in U373 glioma cells treated with HGF or EGF (Western blot); type: cell-based, human; settings: for ACSVL3 expression: HGF 20 ng/ml or EGF 30 ng/ml, 16 hrs
Description: (§1) A. Human U87, U373, and Mayo-22 glioma cells were grown to ˜80% confluence. Cells were either untreated or incubated 16 hrs in the presence of HGF (20 ng/ml; gift from Genentech; South San Francisco Calif.) or EGF (30 ng/ml; Calbiochem/EMD; San Diego Calif.) before harvesting and Western blot analysis for ACSVL3 expression. Each lane contained 30 μg total cellular protein. Actin was detected as a loading control. The three sections were from the same Western blot; images were obtained simultaneously. B. U87 cells stably expressing constitutively active EGFR (EGFRvIII) or corresponding control U87 cells were harvested and analyzed by Western blot. Actin was detected as a loading control. C. Tumors were produced in the flanks of athymic nude mice (n=12) by s.c. injection (2 sites per mouse) of 4×10^6 U87 cells. When tumors size reached ˜300 mm^3 (day 14), animals were randomly divided into two groups of 6 mice. One group received i.p. injection (100 μg/20 g body wt) of anti-HGF mAb (L2G7) and the other group received isotype control mAb (5G8) on days 14, 16, and 18. Mice were sacrificed on day 20. Tumor homogenates (50 μg protein) were subjected to Western blot analysis for ACSVL3 expression. Actin expression was used as a loading control.
(§2) Immunohistochemistry, immunofluorescence, and Western blotting. Immunohistochemical staining for ACSVL3 and ACSBG1, and immunofluorescence analysis of ACSVL3, were performed using affinity-purified antibodies as described (9, 15). ACSVL3 was detected on Western blots with SuperSignal West Pico chemiluminescent substrate (Pierce Biotechnology, Rockford Ill.). Total and phospho-Akt (ser473) were detected with antibodies from BD Biosciences (San Jose Calif.) and Cell Signaling Technology (Danvers Mass.), respectively, and quantitated with the LiCOR Odyssey dual wavelength infrared system. Protein was determined by the method of Lowry et al. (16).
Further characterization of induction of ACSVL3 expression in U373 cells. Human U373 glioma cells have low ACSVL3 expression unless treated with hepatocyte growth factor (HGF). […]

ACSVL3 [4] = assay: ACSVL3 expression in Mayo-22 glioma cells treated with HGF or EGF (Western blot); type: cell-based, human; settings: Mayo 22 cells; HGF 20 ng/ml or EGF 30 ng/ml, 16 hrs
Description: as §1, with “One group received i.p. injection (100 μg/20 g body wt) of anti-HGF mAb (L2G7) and the other group received isotype control mAb (5G8) on days 14, 16, and 18. Mice were sacrificed on day 20. Tumor homogenates (50 μg protein) were subjected to Western blot analysis for ACSVL3 expression. Actin expression was used as a loading control.” left out
as §2, with “Immunohistochemical staining for ACSVL3 and ACSBG1, and immunofluorescence analysis of ACSVL3, were performed using affinity-purified antibodies as described (9, 15).” left out

ACSVL3 [5] = assay: ACSVL3 expression in U87 glioma cells treated with HGF or EGF (Western blot); type: cell-based, human; settings: HGF 20 ng/ml or EGF 30 ng/ml, 16 hrs
Description: as §1, with “One group received i.p. injection (100 μg/20 g body wt) of anti-HGF mAb (L2G7) and the other group received isotype control mAb (5G8) on days 14, 16, and 18. Mice were sacrificed on day 20. Tumor homogenates (50 μg protein) were subjected to Western blot analysis for ACSVL3 expression. Actin expression was used as a loading control.” left out
as §2, with “Immunohistochemical staining for ACSVL3 and ACSBG1, and immunofluorescence analysis of ACSVL3, were performed using affinity-purified antibodies as described (9, 15).” left out

Akt = Akt signaling after HGF in control and ACSVL3 KD U87 cells (Western blot); type: cell-based, human; settings: HGF 20 ng/ml
Description: A & B. Effect of HGF treatment on Akt phosphorylation and stability. Control and ACSVL3-3 KD U87 cells were incubated with HGF (20 ng/ml) for the indicated time prior to analysis for total Akt and phospho-Akt levels by Western blot. A, LiCOR Odyssey images; control and KD images were obtained simultaneously. B, Quantitation of the LiCOR data. C. Effect of caspase inhibition on Akt stability. One control and two different knockdown clones produced using the ACSVL3-3 shRNA plasmid were incubated with HGF (20 ng/ml) for the indicated time in the absence or presence of the pan-caspase inhibitor, Z-VAD-FMK (50 μM), prior to analysis for total Akt and phospho-Akt levels by Western blot. […] Left, adherent growth was measured 11.5 days post-transfection as described in the legend to FIG. 4A. Right, anchorage-independent growth was measured by colony formation in soft agar on day 17 post-transfection as described in the legend to FIG. 4B. Mean±standard error is shown; statistical significance was determined by one-way ANOVA with Bonferroni's multiple comparison test. ***, p<0.001 vs. control vector; **, p<0.01 vs. control vector; n.s., p>0.05 vs. control myr-Akt.
Immunohistochemistry, immunofluorescence, and Western blotting. […] ACSVL3 was detected on Western blots with SuperSignal West Pico chemiluminescent substrate (Pierce Biotechnology, Rockford Ill.). […]

CN1CCN(CCCN2c3ccccc3Sc3ccc(C(F)(F)F)cc32)CC1 [trifluperazine]
inhibition of acyl-CoA synthetase activity in control vs ACSVL3-deficient U87 cells (specificity for ACSVL3) (ACSVL3 [1]): inhibit both control and ACSVL3-deficient cells, but show greater inhibition in control U87 cells

C[C@@H]1C[C@@H]([C@H](O)CC2CC(=O)NC(=O)C2)C(=O)[C@@H](C)C1 [cycloheximide]
HGF-induced increase in ACSVL3 expression (ACSVL3 [2]): blocked the HGF-induced increase in ACSVL3 expression
ACSVL3 expression in the absence of HGF (ACSVL3 [2]): neither actinomycin D nor cycloheximide affected ACSVL3 expression

EGF: EGFR ligand, epidermal growth factor
ACSVL3 expression (ACSVL3 [3]): increased ACSVL3 expression
ACSVL3 expression (ACSVL3 [4]): increased ACSVL3 expression
ACSVL3 expression (ACSVL3 [5]): not increased above its high basal expression levels

OCCN1CCN(CCCN2c3ccccc3Sc3ccc(Cl)cc32)CC1 [perphenizine]
inhibition of acyl-CoA synthetase activity in control vs ACSVL3-deficient U87 cells (specificity for ACSVL3) (ACSVL3 [1]): exhibited specificity for ACSVL3

Cbz-Val-Ala-Asp-CH2F
Akt response to HGF stimulation under caspase inhibition (Akt; ACSVL3 KD U87 cells, Z-VAD-FMK 50 μM): normalized the Akt response to HGF stimulation

O=C1NCN(c2ccccc2)C12CCN(CCCC(c1ccc(F)cc1)c1ccc(F)cc1)CC2 [fluspirilene]
inhibition of acyl-CoA synthetase activity in control vs ACSVL3-deficient U87 cells (specificity for ACSVL3) (ACSVL3 [1]): inhibit enzyme activity similarly in both control and ACSVL3-deficient U87 cells

HGF: Hepatocyte growth factor, c-Met agonist
Akt phosphorylation (Ser-473) (Akt; control-transfected U87 glioma cells): increased rapidly and remained elevated for up to two hours
time course of induction of ACSVL3 protein (ACSVL3 [3]; FIG. 12): increased in U373 cells as early as 2 hours
ACSVL3 expression (ACSVL3 [3]): induce ACSVL3 expression levels
ACSVL3 expression (ACSVL3 [4]): induce ACSVL3 expression levels
ACSVL3 expression (ACSVL3 [5]): not increased above its high basal expression levels

CN(C)CCCN1c2ccccc2Sc2ccc(C(F)(F)F)cc21 [Triflupromazine]
inhibition of acyl-CoA synthetase activity in control vs ACSVL3-deficient U87 cells (specificity for ACSVL3) (ACSVL3 [1]): exhibited specificity for ACSVL3

Nc1ccc(/N=N/c2ccccc2)c(N)n1 [phenazopyridine]
inhibition of acyl-CoA synthetase activity in control vs ACSVL3-deficient U87 cells (specificity for ACSVL3) (ACSVL3 [1]): inhibit enzyme activity similarly in both control and ACSVL3-deficient U87 cells

Cc1cc(O)c2c(c1)C(=O)c1cc(O)cc(O)c1C2=O [emodin]
inhibition of acyl-CoA synthetase activity in control vs ACSVL3-deficient U87 cells (specificity for ACSVL3) (ACSVL3 [1]): inhibit enzyme activity similarly in both control and ACSVL3-deficient U87 cells

OCCN1CCN(CC/C=C2/c3ccccc3Sc3ccc(C(F)(F)F)cc32)CC1 [flupenthixol]
inhibition of acyl-CoA synthetase activity in control vs ACSVL3-deficient U87 cells (specificity for ACSVL3) (ACSVL3 [1]): inhibit both control and ACSVL3-deficient cells, but show greater inhibition in control U87 cells

CC(CN1c2ccccc2Sc2ccccc21)N(C)C (stereo not shown) [promethazine]
inhibition of acyl-CoA synthetase activity in control vs ACSVL3-deficient U87 cells (specificity for ACSVL3) (ACSVL3 [1]): inhibit enzyme activity similarly in both control and ACSVL3-deficient U87 cells

CN(C)CCCN1c2ccccc2Sc2ccc(Cl)cc21 [chlorpromazine]
inhibition of acyl-CoA synthetase activity in control vs ACSVL3-deficient U87 cells (specificity for ACSVL3) (ACSVL3 [1]): exhibited specificity for ACSVL3

Cc1c2oc3c(C)ccc(C(=O)N[C@@H]4C(=O)N[C@H](C(C)C)C(=O)N5CCC[C@H]5C(=O)N(C)CC(=O)N(C)[C@@H](C(C)C)C(=O)O[C@@H]4C)c3nc-2c(C(=O)N[C@@H]2C(=O)N[C@H](C(C)C)C(=O)N3CCC[C@H]3C(=O)N(C)CC(=O)N(C)[C@@H](C(C)C)C(=O)O[C@@H]2C)c(N)c1=O [actinomycin D] (I: T[dV]P[Sar][NMeV] / II: T[dV]P[Sar][NMeV]; ester I:1-I:C, II:1-II:C; linker I:N-II:N via Actinocin(9to1))
HGF-induced increase in ACSVL3 expression (ACSVL3 [2]): blocked the HGF-induced increase in ACSVL3 expression
ACSVL3 expression in the absence of HGF (ACSVL3 [2]): neither actinomycin D nor cycloheximide affected ACSVL3 expression
